{"source": "patent US20260207600A1", "about": "“METHODS OF TREATMENT WITH MYOSIN MODULATOR” (MYOKARDIA, INC., priority 2019, published 2026)", "key": {"[1]": {"assay": "Solubility estimates at ambient temperature", "format": "physicochemical", "conditions": "for solubility: organic solvent or mixture, thermodynamic from solid, read-out: solubility estimate", "protocol": "Solubilities were calculated based on the total solvent used to give a solution; actual solubilities may be greater because of the volume of solvent portions utilized or a slow rate of dissolution. […] If dissolution occurred at the first aliquot, the value was reported as “>”.\nSolubility estimates at ambient temperature were performed in 25 solvents and solvent systems using Form A (Lot 2-4) (Table 13.3)."}, "[2]": {"tested_on": "conscious Sprague-Dawley rats", "assay": "Positive inotropic challenge (dobutamine, levosimendan) after supra-therapeutic mavacamten, echocardiography", "format": "in vivo, rat", "conditions": "healthy rats exposed to a supra-therapeutic dose of mavacamten", "protocol": "Methods: The responsiveness of mavacamten-induced cardio-depression to positive inotropic challenges was assessed in a set of conscious Sprague-Dawley rats. In these animals, functional reserve was assessed via either dobutamine (+DOB, 10 μg/kg/min IV for 10 min, n=7) or levosimendan (+LEVO, 0.3 μmol/kg IV over […]; n=6) challenges given 3 hrs following a single-dose administration of MAVA (at 4 mg/kg, PO). Cardiac function/geometry were recorded and compared at three separate time-points/days: prior to dosing (i.e., at baseline) and at 3 hrs post-dosing both before as well as during the inotropic challenge; in order to account for the levosimendan-induced changes in loading conditions, an additional echocardiographic examination was performed following acute preload-restoration in LEVO-treated rats (+LEVO/F, 0.9% NaCl at 30 mL/kg/hr IV).\nIn these experiments, left-ventricular fractional shortening (FS), an index of systolic performance, as well as LV dimensions/volumes and heart rates were measured using a high-frequency transducer and parasternal long-axis transthoracic views (Vevo2100, VisualSonic). FS was defined as the end-diastole normalized change in internal dimensions/diameter of the left ventricle between end-systole (LVESd) and end-diastole (LVEDd) (i.e., FS=100·[LVEDd−LVESd]/LVEDd). LV volumes were derived assuming a Teichholz model (LVV=7·[2.4+LVid]−1·LVid3)."}, "[3]": {"tested_on": "Yucatan mini-pigs with a heterozygous MYH7 R403Q mutation", "assay": "Chronic MYK-581 in mini-pig genetic model of non-obstructed HCM (cMR imaging, invasive hemodynamics, dobutamine challenge)", "format": "in vivo", "protocol": "The mini-pigs were treated for at least 12 weeks and were evaluated as shown in Schematic 1 below. […] After ~14 weeks of treatment, all pigs underwent in vivo cMR imaging for the assessment of LV function and geometry, as well as of myocardial composition via of Late Gadolinium Enhancement (LGE) and T1 mapping techniques including extracellular volume (ECV) assessments. In addition, a subset of animals (MYK: n=6, CTRL: n=5) also underwent terminal invasive hemodynamics assessments, including cardiac output (CO, via thermodilution), load-independent systolic/diastolic function (via LV pressure-volume relationships), and β-adrenergic (β-AR) cardiac reserve (via dobutamine at 5 μg/kg/min IV).\nThe mini-pig model can be obtained following the method disclosed in a presentation entitled “A Minipig Genetic Model of Hypertrophic Cardiomyopathy Uncovers the Pathophysiological Mechanisms of Disease Evolution”, by E. Green et al., at University of Iowa, Carver College of Medicine."}}, "note": "Where two headings read alike, the source gives them in different places.", "data": [{"smiles": "CC(C)n1c(=O)cc(N[C@@H](C)c2ccccc2)[nH]c1=O", "note": "[Form A, (S)-3-isopropyl-6-((1-phenylethyl)amino)-pyrimidine-2,4 (1H,3H)-dione]", "values": [{"measurement": "solubility estimate", "setting": "[1]; methanol, THF, THF/water (90/10, vol/vol) and DMSO/water (90/10, vol/vol)", "value": "limited solubility"}, {"measurement": "solubility", "setting": "[1]; HFIPA and various mixtures with DMSO, NMP and DMF", "value": "≥ 20", "unit": "mg/mL"}, {"measurement": "solubility", "setting": "[1]; anisole, isopropanol, MIBK, nitromethane, and toluene", "value": "≤ 1", "unit": "mg/mL"}]}, {"smiles": "C[C@@H]1CC(=O)NN=C1c1ccc(NN=C(C#N)C#N)cc1", "note": "[levosimendan]", "values": [{"measurement": "echocardiography-derived indices of systolic function after supra-therapeutic mavacamten", "setting": "[2]", "value": "successfully rescued/restored"}]}, {"smiles": "CC(C)n1c(=O)cc(N[C@@H](C)c2cccc(F)c2)[nH]c1=O", "note": "[MYK-581, (S)-6-((1-(3-fluorophenyl)ethyl)amino)-3-isopropylpyrimidine-2,4 (1H,3H)-dione]", "values": [{"measurement": "LV stiffness", "setting": "[3]; control 3.5±0.3", "value": "1.3±0.2", "unit": "mmHg/mL"}, {"measurement": "LV end-diastolic pressures", "setting": "[3]; control 23±4", "value": "9±1", "unit": "mmHg"}, {"measurement": "left-atrial volumes", "setting": "[3]; control 29±4", "value": "16 ± 1", "unit": "mL"}, {"measurement": "ECV", "setting": "[3]; control 32±2", "value": "27±1", "unit": "%"}, {"measurement": "LV mass", "setting": "[3]; control 66±5", "value": "51 ± 4", "unit": "g"}, {"measurement": "time-constants of relaxation", "setting": "[3]; control 71±5", "value": "45 ± 3", "unit": "ms"}, {"measurement": "CO increase under β-AR challenge", "setting": "[3]; dobutamine challenge, control +26±2", "value": "+60±8%"}, {"measurement": "β-AR stroke-volume recruitment", "setting": "[3]; dobutamine challenge, control −14±6", "value": "+15±4%"}, {"measurement": "mortality", "setting": "[3]; end of the study (~5 months), CTRL 40%", "value": 0, "unit": "%"}, {"measurement": "EF", "setting": "[3]; ~14 weeks of treatment, cMR, control 65±2", "value": "59±2", "unit": "%"}]}, {"smiles": "CC(CCc1ccc(O)cc1)NCCc1ccc(O)c(O)c1", "note": "(stereo not drawn) [dobutamine]", "values": [{"measurement": "echocardiography-derived indices of systolic function after supra-therapeutic mavacamten", "setting": "[2]", "value": "successfully rescued/restored"}]}]}
